Assay results from patent US20240398823A1, “DUAL INHIBITOR OF HISTONE DEACETYLASE 6 AND HEAT SHOCK PROTEIN 90” (TAIPEI MEDICAL UNIVERSITY, priority 2021, published 2024).

How the values were obtained:
[1] = tested on: PD-L1 and IDO expression in tumor region (CT26); test: IHC of PD-L1 and IDO in CT26 tumor region; format: in vivo, mouse; details: CT26 tumors, day 25, IHC, 10, 25, 50 mg/kg
Description: The tumors were removed and immunohistochemically stained at 25 days after intravenous tail injection in mice with colorectal cancer tumors. […] Bar, SD.
The effects of the HSP90/HDAC6 dual inhibitors as described in Synthesis Examples (such as Compounds 63, 64, and 66 to 76) on several factors were evaluated. IHC-Paraffin: Tumor tissues were excised from the mice, fixed in 4% formaldehyde solution in PBS, and embedded in paraffin. Sections of 4-5 μm were cut and placed in an oven at 60° C. for overnight. After deparaffinizing and rehydrating the section, the antigen retrieval was performed with citrate buffer (10 mM citrate acid, pH 6) or Tris buffer (10 mM Tris, 1 mM EDTA, pH9) by autoclave for 30 min at 121 C. The sections were blocked with 10% goat serum and then incubated with primary antibodies against the following antigens: IDO (Santa Cruz Biotechnology Dallas, TX, USA), CD8 (Novus, Littleton, CO, USA) and granzyme B (Abcam, Cambridge, UK) at 4 C for overnight. IHC— Frozen for PD-L1: Tumor tissues were collected from the mice, embedded in OCT compound (Sakura Finetek, Torrance, CA, U.S.A.). […] Images of the tumor tissues sections were captured by Mirax Scan (CARL ZEISS, Germany) or TissueFAXS (Vienna, Austria) and analyzed by HistoQuest software (Vienna, Austria).
Compound 75 was evaluated to determine its ability to reduce PD-L1 and IDO in the tumor microenvironment.

[2] = tested on: T cells in blood (CD8+, CD4+, Treg); test: Peripheral blood immune cells by flow cytometry in CT26 tumor mice; format: in vivo, mouse; details: day 25, flow cytometry, 10, 25, 50 mg/kg
Description: FIGS. 10A to 10C show immune cell regulation of peripheral blood by Compound 75. BALB/c mice with CT26 tumors were treated with 10, 25 and 50 mg/kg of Compound 75 every two days, and blood was collected from the heart and analyzed by flow cytometry on day 25 for cytotoxicity T cells (CD3+CD8+) (as shown in FIG. 10A), helper T cells (CD3^+CD4^+) (as shown in FIG. 10B) and regulatory T cells (CD3^+CD4^+FOXP3^+) (as shown in FIG. 10C). Data are expressed as mean±S.D. N values greater than 3. * P<0.05; ** P<0.01; *** P<0.001, compared with the control group.
The reasons for the decrease of Treg in blood were further investigated.

[3] = tested on: colorectal cancer tumors (CT26); test: CT26 syngeneic tumor growth in immunocompetent Balb/c mice; format: in vivo, mouse; details: CT26 in Balb/c, 10, 25, 50 mg/kg i.v. every two days
Description: Tumor size in each mouse (FIG. 5B) and mean tumor size (FIG. 5C) were measured periodically. Bar, SEM. […] N values greater than 3.
The effects of the HSP90/HDAC6 dual inhibitors as described in Synthesis Examples (such as Compounds 63, 64, and 66 to 76) on syngeneic tumor treatment were evaluated. Female BALB/c mice were subcutaneously implanted with mouse colorectal cancer CT26 cells ([…] cells/mouse) in the left unilateral back. After tumor size reached 50 mm^3, mice were i.v. injected with […], STA9090 (Ganetespib), or anti-PD-1 antibody (clone RMP1-14) (4-8 mice per group). The progression of tumor sizes and body weights was measured twice per week. Tumor volume formula: V (mm^3)=(length×width×height)/2. Mice were sacrificed on day 25, and tumors and blood were collected for the analysis of immune cell populations.
After CT26 was injected subcutaneously into the back of immunocompetent mice (Balb/c), the tumors grew to 50 mm^3. Compound 75 was administered intravenously at 10 mg/kg, 25 mg/kg and 50 mg/kg every two days (FIG. 5A).

HSP90α = molecular target: T1, HSP90α (Homo sapiens, UniProt P07900); test: HSP90 inhibition assay, FITC-geldanamycin competition fluorescence polarization, HSP90α; format: binding; details: FITC-GM competition
T1 construct: Reaction Biology Corporation (ran the assay as a service)

CT26 tumor = CT26 tumor model, Compound 75 combined with CPT-11; format: in vivo, mouse; details: Compound 75 50 mg/kg plus CPT-11 20 mg/kg
Description: CT26 was injected subcutaneously into immunocompetent mice (BALB/c). The mice were treated with CPT-11 or combined Compound 75 with CPT-11 when the tumor grew to 50-100 mm^3. CPT-11 was given at 20 mg/kg for 7 consecutive days; compound 75 was given at 50 mg/kg every 2 days (8 doses in total, with suspension after day 14). […] Bar, S.E.M.
Whether Compound 75 could enhance the tumor suppressive effect of chemotherapeutic agents was evaluated. Control (vehicle), CPT-11 (20 mg/kg), or Compound 75 (50 mg/kg) was administered in combination with CPT-11 to mice and sacrificed them on day 25 as shown in FIG. 13A.

HSP90β = molecular target: T2, HSP90β (Homo sapiens, UniProt P08238); test: HSP90 inhibition assay, FITC-geldanamycin competition fluorescence polarization, HSP90β; format: binding; details: FITC-GM competition
T2 construct: Reaction Biology Corporation (ran the assay as a service)
T2 sequence (P08238 whole entry): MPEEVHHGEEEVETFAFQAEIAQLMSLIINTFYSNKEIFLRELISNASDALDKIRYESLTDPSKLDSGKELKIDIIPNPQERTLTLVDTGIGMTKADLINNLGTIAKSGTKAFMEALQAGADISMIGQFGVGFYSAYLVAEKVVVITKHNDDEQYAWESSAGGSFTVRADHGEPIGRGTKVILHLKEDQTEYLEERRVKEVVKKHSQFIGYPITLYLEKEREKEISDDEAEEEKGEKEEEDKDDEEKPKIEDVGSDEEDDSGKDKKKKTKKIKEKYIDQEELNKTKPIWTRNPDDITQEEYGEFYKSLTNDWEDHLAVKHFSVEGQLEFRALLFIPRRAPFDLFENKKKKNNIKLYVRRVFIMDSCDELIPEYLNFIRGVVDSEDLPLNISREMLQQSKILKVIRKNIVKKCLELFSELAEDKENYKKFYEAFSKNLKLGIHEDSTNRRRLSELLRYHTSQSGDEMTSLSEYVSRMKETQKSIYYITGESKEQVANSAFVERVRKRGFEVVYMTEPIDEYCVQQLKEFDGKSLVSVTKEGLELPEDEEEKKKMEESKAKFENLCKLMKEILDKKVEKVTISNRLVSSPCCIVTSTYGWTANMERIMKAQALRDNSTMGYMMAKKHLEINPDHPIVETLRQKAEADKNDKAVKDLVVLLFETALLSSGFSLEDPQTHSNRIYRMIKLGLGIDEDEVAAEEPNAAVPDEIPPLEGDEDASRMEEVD

COc1ccc(N(Cc2ccc(C(=O)NO)cc2)C(=O)c2cc(C(C)C)c(O)cc2O)cc1 [Compound 75, 2,4-Dihydroxy-N-(4-hydroxycarbamoyl-benzyl)-5-isopropyl-N-(4-methoxy-phenyl)-benzamide]
PD-L1 and IDO expressions in the tumor region [1]: reduces PD-L1 and IDO expressions | immunosuppressive Treg cell level in blood [2]: could be reduced in a concentration dependent manner | percentage of CD4+ helper T cells in blood [2]: did not affect | percentage of CD8+ cytotoxicity T cells in blood [2]: did not affect | growth of colorectal cancer tumors in mice [3]: inhibit the growth of colorectal cancer tumors in mice | IC50 (HSP90α): 52 nM | body weight, combined therapy versus CPT-11 alone (CT26 tumor): no significant difference | tumor suppressive effect in combination with CPT-11 (CT26 tumor; day 25): significantly enhanced the effect of CPT-11 therapy | IC50 (HSP90β): 66.9 nM
